Data from PubChem BioAssay AID248 (DTP/NCI, 2004).
Toxic doses and inconclusive results are not listed. Cut-off read from the data, not from the text of the source: active = T/C of 150% or more; inactive = T/C below 125%.

System: L1210 leukemia ip in BDF1 mice, survival T/C
Assay: NCI In Vivo Anticancer Drug Screen. Data for tumor model L1210 Leukemia (intraperitoneal) in B6D2F1 (BDF1) mice
Conditions: endpoint: mean survival time, higher = longer survival
Procedure, shortened: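 Tumor cells were implanted, animals were treated, and survival was followed. The result divides the treated measurement by the vehicle-control measurement.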

[1] = dose: 100.0 mg/kg/injection, schedule: Q01DX001 (ip), vehicle: saline
[2] = dose: 200.0 mg/kg/injection, schedule: Q01DX001 (ip), vehicle: saline
[3] = dose: 100.0 mg/kg/injection, schedule: Q04DX003 (ip), vehicle: saline
[4] = dose: 100.0 mg/kg/injection, schedule: Q04DX002 (ip), vehicle: Klucel (hydroxypropylcellulose) (HPC)
[5] = dose: 200.0 mg/kg/injection, schedule: Q04DX002 (ip), vehicle: Klucel (hydroxypropylcellulose) (HPC)
[6] = dose: 400.0 mg/kg/injection, schedule: Q04DX002 (ip), vehicle: Klucel (hydroxypropylcellulose) (HPC)
[7] = dose: 100.0 mg/kg/injection, schedule: Q04DX003 (ip), vehicle: Klucel (hydroxypropylcellulose) (HPC)
[8] = dose: 200.0 mg/kg/injection, schedule: Q04DX003 (ip), vehicle: Klucel (hydroxypropylcellulose) (HPC)
[9] = dose: 400.0 mg/kg/injection, schedule: Q04DX003 (ip), vehicle: Klucel (hydroxypropylcellulose) (HPC)
[10] = dose: 100.0 mg/kg/injection, schedule: Q01DX001 (ip), vehicle: carboxymethylcellulose (CMC)
[11] = dose: 200.0 mg/kg/injection, schedule: Q01DX001 (ip), vehicle: carboxymethylcellulose (CMC)
[12] = dose: 400.0 mg/kg/injection, schedule: Q01DX001 (ip), vehicle: carboxymethylcellulose (CMC)

Measured: T/C

CCCCN(CCCC)C(=O)OCC
inactive: [1] 103 % of control | [2] 94 % of control | dose: 400.0 mg/kg/injection, schedule: Q01DX001 (ip), vehicle: saline 101 % of control

CC(C)=C(Br)CN
inactive: [3] 95 % of control | dose: 200.0 mg/kg/injection, schedule: Q04DX003 (ip), vehicle: saline 108 % of control | dose: 400.0 mg/kg/injection, schedule: Q04DX003 (ip), vehicle: saline 94 % of control

Cc1cnc(NC#N)nc1-c1ccccc1O
inactive: [4] 95 % of control | [5] 98 % of control | [6] 95 % of control

CC1(C)C2CC3C(C(=O)O)C(C(=O)O)CCC3(C2)C1OC=O (stereo unspecified)
inactive: [7] 99 % of control | [8] 92 % of control | [9] 103 % of control

CC(=O)N(CC(=O)O)c1ccccc1
inactive: dose: 100.0 mg/kg/injection, schedule: Q04DX003 (ip), vehicle: saline with Tween-80 101 % of control | dose: 200.0 mg/kg/injection, schedule: Q04DX003 (ip), vehicle: saline with Tween-80 103 % of control | dose: 400.0 mg/kg/injection, schedule: Q04DX003 (ip), vehicle: saline with Tween-80 98 % of control

Cc1ccc(NC(=S)NC(=O)C(C)Oc2ccccc2)cc1Cl (stereo unspecified)
inactive: dose: 100.0 mg/kg/injection, schedule: Q01DX009 (ip), vehicle: Klucel (hydroxypropylcellulose) (HPC) 94 % of control | [7] 100 % of control | dose: 200.0 mg/kg/injection, schedule: Q01DX009 (ip), vehicle: Klucel (hydroxypropylcellulose) (HPC) 101 % of control | [8] 101 % of control | dose: 400.0 mg/kg/injection, schedule: Q01DX009 (ip), vehicle: Klucel (hydroxypropylcellulose) (HPC) 101 % of control | [9] 109 % of control

CCCC(CCN1CCCC1)(CNC(=O)CN(CC)CC)c1cccc2ccccc12 (stereo unspecified)
inactive: dose: 25.0 mg/kg/injection, schedule: Q04DX003 (ip), vehicle: saline 103 % of control | dose: 50.0 mg/kg/injection, schedule: Q04DX003 (ip), vehicle: saline 104 % of control | [3] 106 % of control

COC(OC)c1nc(N)[nH]c(=O)c1Cc1cccc2ccccc12
inactive: [4] 97 % of control | [5] 86 % of control | [6] 105 % of control

Fc1cc(N(CCCl)CCCl)ccc1C=NCCCN=Cc1ccc(N(CCCl)CCCl)cc1F
inactive: [10] 95 % of control | [11] 95 % of control | [12] 111 % of control

CCOC(=O)NC(=S)[S][Sb]([S]C(=S)NC(=O)OCC)[S]C(=S)Nc1ccc(S(=O)(=O)Nc2ccc(N=Nc3ccccc3)cc2)cc1
inactive: dose: 100.0 mg/kg/injection, schedule: Q01DX001 (ip), vehicle: steriod suspending solution 103 % of control | dose: 400.0 mg/kg/injection, schedule: Q01DX001 (ip), vehicle: steriod suspending solution 106 % of control

CNC(=S)n1cnc(N)n1
inactive: dose: 50.0 mg/kg/injection, schedule: Q01DX001 (ip), vehicle: saline 107 % of control | [1] 101 % of control | [2] 107 % of control

O=S(=O)(F)c1cc(Cl)cc(Cl)c1O
inactive: dose: 100.0 mg/kg/injection, schedule: Q04DX002 (ip), vehicle: other 93 % of control | dose: 200.0 mg/kg/injection, schedule: Q04DX002 (ip), vehicle: other 93 % of control | dose: 400.0 mg/kg/injection, schedule: Q04DX002 (ip), vehicle: other 104 % of control

O=C1c2cc(Cl)ccc2-c2c(F)cc(Cl)cc21
inactive: [10] 103 % of control | [11] 105 % of control | [12] 105 % of control

COc1c2c(c(C(=O)O)c3ccncc13)CC(C)(C)C2
inactive: dose: 50.0 mg/kg/injection, schedule: Q01DX009 (ip), vehicle: saline with Tween-80 102 % of control | dose: 100.0 mg/kg/injection, schedule: Q01DX009 (ip), vehicle: saline with Tween-80 98 % of control | dose: 200.0 mg/kg/injection, schedule: Q01DX009 (ip), vehicle: saline with Tween-80 101 % of control

Cc1cc(C)c(C)c(NC(=O)NCCCl)c1C
inactive: dose: 100.0 mg/kg/injection, schedule: Q01DX001 (ip), vehicle: Klucel (hydroxypropylcellulose) (HPC) 92 % of control | dose: 200.0 mg/kg/injection, schedule: Q01DX001 (ip), vehicle: Klucel (hydroxypropylcellulose) (HPC) 88 % of control
